Common to all, as to assay: inhibition of tumour cell growth, NCI panel, 48 h
The test system of test [1] is HOP-62 NSCLC.
Test [2] concerns KM12 colon.
Test [3] has as its system MDA-MB-435.
Test [4] deals with OVCAR-4 ovarian.
For test [5], the system named is OVCAR-5 ovarian.
The subject of test [6] is RPMI-8226 leukemia.
The test system of test [7] is SK-MEL-28 melanoma.
Test [8] concerns SW-620 colon.
Test [9] deals with TK-10 renal.
Test [10] relates to UACC-62 melanoma.
The test system of test [11] is A549 NSCLC.
The test system of test [12] is BT-549 breast.

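Following 48 hours of exposure in 96-well plates, responses at five concentrations were used to interpolate endpoints linearly. At the GI50, growth is halved. TGI marks complete inhibition of growth.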 Where a SMILES comes first, the peptide text is derived from it. [ ]: non-standard residue; d: D form. The star is where a group is joined. Cbz = O=C(OCc1ccccc1)*; Aib = CC(C)(N)C(=O)O

Consider `CCOP(=O)(Cc1nc(C#N)c(N)o1)OCC`, for which the TGI in [1], in test [2], in [3], in test [4], in test [5] and in [6] was greater than 100 µM in each case. The TGI in test [7], in [8], in [9] and in [10] was greater than 100 µM each time.

Consider `COc1ccc(/C=C2\OC(=O)C(Cl)=C2c2ccc(OC)c(Cl)c2)cc1`, for which the TGI was greater than 100 µM in test [11]; 35.7 µM in test [1]; greater than 100 µM in test [2]; 59.9 µM in test [3]; 51.8 µM in [4]; 90.5 µM in [5]. The TGI was 81.8 µM in test [6]; greater than 100 µM in test [7]; greater than 100 µM in test [8]; 45.6 µM in [9]; 80 µM in [10].

As for `O=S(=O)(O)c1cc(N=[N+]([O-])c2ccc(N=Nc3ccccc3)cc2S(=O)(=O)O)ccc1/C=C/c1ccc(N=[N+]([O-])c2ccc(N=Nc3ccccc3)cc2S(=O)(=O)O)cc1S(=O)(=O)O`, the TGI in [11], in test [1], in test [2], in test [4], in [5] and in [6] was greater than 100 µM throughout. The TGI in test [7], in [8] and in test [10] was greater than 100 µM in each case.

Consider `CCOC(=O)Cc1cc(=O)[nH]c(-n2[nH]c(C)c(CCO)c2=O)n1`, for which the TGI in test [11], in test [1], in test [2], in test [3], in test [4] and in test [5] was greater than 100 µM each time. The TGI in test [6], in [7], in [8], in [9] and in test [10] was greater than 100 µM in each case.

As to `COc1ccc(C2=Nc3c(nc(SC)[nH]c3=O)NC(c3ccccc3)C2)cc1` (centres undefined), the TGI is 66.5 µM in [11]; 66.1 µM in test [12]; greater than 100 µM in test [1]; 30.2 µM in test [2]; greater than 100 µM in test [3]; greater than 100 µM in test [5]. Besides, the TGI is 62 µM in test [6] and greater than 100 µM in [8].

As to `O=[N+]([O-])c1ccc(Nc2cccc3c2[nH]c2c(-c4ccccc4)nccc23)c([N+](=O)[O-])c1`, the TGI in [11], in test [1], in [2], in [4], in test [5] and in test [6] was greater than 100 µM in each case. In addition, the TGI in [7], in test [8] and in test [10] was greater than 100 µM in each case.

For `CC(C)N1[C@@H]2CCCC[C@H]2N(C(C)C)[P+]1=O`, the TGI in test [11], in test [1], in test [2], in test [3], in test [5] and in [6] was greater than 100 µM in each case. For the same molecule, the TGI in [8], in [9] and in test [10] was greater than 100 µM each time.

In the case of `CCN(CC)C(=O)c1cc([N+](=O)[O-])c(=O)n2c1[nH]c1ccccc12`, the TGI in test [11], in [1], in test [2], in test [3], in [4] and in test [5] was greater than 100 µM each time. Also, the TGI in test [6], in test [7], in test [8], in test [9] and in [10] was greater than 100 µM each time.

As to `CC1=C(C(=O)NCc2ccccc2)C(c2ccco2)C(C(=O)NCc2ccccc2)=C(C)N1`, the TGI in [11], in test [1], in test [2], in [4], in test [5] and in [6] was greater than 100 µM in each case. Also, the TGI in [7] was greater than 100 µM; in test [8] it was greater than 100 µM; in test [9], greater than 100 µM; in test [10], 50.6 µM.

As for `Cc1ccc2c(c1)Nc1ccccc1P2(=O)O`, the TGI in test [11], in test [1], in test [2], in test [3], in test [4] and in test [5] was greater than 100 µM each time. For the same molecule, the TGI in test [7], in test [8], in test [9] and in [10] was greater than 100 µM throughout.

With `COc1cccc(N(CN2C(=O)CCC2OC)C(C)=O)c1` (centres undefined), the TGI in test [11], in test [1], in test [2], in test [3], in test [4] and in test [5] was greater than 100 µM throughout. Also, the TGI in test [6], in [7], in test [8], in [9] and in test [10] was greater than 100 µM throughout.

For the molecule `Nc1ccc(C(=O)O)cc1`, the TGI in [11], in test [1], in test [2], in [3], in [4] and in test [5] was greater than 100 µM in each case. Also, the TGI in test [6], in test [7], in test [8] and in test [9] was greater than 100 µM each time.

On to `Cn1c(-c2c(C3=CC(=O)N(c4ccccc4)C3=O)c3ccccc3n2C)cc2ccccc21`, for which the TGI in [11], in [1], in [2], in [3], in [4] and in [5] was greater than 100 µM in each case. Also, the TGI in [6], in test [7], in test [8], in test [9] and in [10] was greater than 100 µM throughout.

For `Cc1ccc2c(=O)cc(-c3cccc(F)c3)[nH]c2n1`, the TGI was greater than 100 µM in test [11]; greater than 100 µM in [1]; 1.29 µM in test [2]; 0.0224 µM in test [3]; greater than 100 µM in test [4]; greater than 100 µM in test [5]. Moreover, the TGI in [6] was greater than 19.8 µM; in [7], greater than 100 µM; in test [8] it was greater than 100 µM; in test [9], greater than 100 µM; in test [10], greater than 100 µM.

For `Nc1ncc2c(n1)-c1ccccc1OC2`, the TGI in test [11] is greater than 100 µM; in test [1], greater than 100 µM; in test [2] it was greater than 100 µM; in test [4], greater than 31.6 µM; in test [5], greater than 100 µM; in [6], greater than 100 µM. Besides, the TGI in [7], in [8] and in test [10] was greater than 100 µM in each case.

`CC(C)(NC(=O)C(C)(C)NC(=O)OCc1ccccc1)C(=O)O` (Cbz-[Aib]-[Aib]-OH): the TGI in test [11], in test [1], in test [2], in test [3], in test [4] and in [5] was greater than 100 µM throughout. The TGI in [6], in [7], in [8], in test [9] and in test [10] was greater than 100 µM each time.

Turning to `ClC1=C(Cl)C2OC3C=CCC3OC2C(Cl)=C1Cl` (centres undefined), the TGI in [1] is greater than 100 µM; in test [2], greater than 100 µM; in test [3], greater than 100 µM; in test [4], greater than 100 µM; in [5] it was greater than 100 µM; in [6], 66.4 µM. The TGI in test [7], in [8] and in test [9] was greater than 100 µM each time.

`O=c1onc(Nc2ccccc2)n1-c1ccccc1`: the TGI in test [11], in test [12], in [1], in [2], in test [4] and in test [5] was greater than 100 µM in each case. Further, the TGI in [7], in [8], in [9] and in test [10] was greater than 100 µM each time.

With `Nc1c(C(=O)O)nnc2cc(Cl)ccc12`, the TGI in test [11], in test [12], in [1], in [2], in test [3] and in test [4] was greater than 100 µM throughout. In addition, the TGI in test [5], in [8], in test [9] and in test [10] was greater than 100 µM each time.

As for `Clc1ncnc2c1nc(C#Cc1ccccc1)n2C1CCCCO1` (centres undefined), the TGI in test [11] stood at 4.04 µM; in [12] it was 4.1 µM; in test [1], 6.38 µM; in [2], 3.05 µM; in test [3], 5.84 µM; in test [4], 3.75 µM. The TGI in test [5] came to 4.84 µM; in test [7], 4.78 µM; in test [8], 4.94 µM; in test [9], 5.11 µM; in test [10] it was 5.84 µM.

`N=C(N)c1ccc(-c2ccc(-c3ccc(Cl)cc3Cl)s2)nc1`: the GI50 in [12] is 6.53 µM; in test [1], 1.89 µM; in [2], 1.76 µM; in test [3], 1.73 µM; in test [5] it was 1.71 µM; in test [6], 2.32 µM. Moreover, the GI50 in test [7] is 1.76 µM; in [10] it was 1.9 µM. In addition, the TGI is 28.6 µM in test [12]; 3.92 µM in test [1]; 3.19 µM in [2]; 3.11 µM in test [3]; 3.21 µM in test [5]; 5.42 µM in test [6]. For the same molecule, the results for the TGI in test [7] and in test [10] were 3.28 µM and 3.65 µM, respectively.

Regarding `CSc1nc(-c2ccccc2)nc(=[N+]2CCOCC2)s1`, the TGI in [11], in test [1], in test [2], in test [4], in test [5] and in test [7] was greater than 100 µM throughout. In addition, the TGI in test [8], in test [9] and in [10] was greater than 100 µM in each case.

As for `Cc1ccc(S(=O)(=O)NC(=O)NC(CC(=O)O)C(=O)O)cc1` (centres undefined), the TGI in test [11], in test [12], in test [1], in [2], in test [4] and in [5] was greater than 100 µM throughout. Further, the TGI in test [6], in [7], in [8], in test [9] and in test [10] was greater than 100 µM in each case.

As for `CCc1n[nH]c(=O)[nH]1`, the TGI in [11], in test [12], in test [1], in [2], in [3] and in test [5] was greater than 100 µM each time. The TGI in test [9] and in test [10] was greater than 100 µM in each case.

In the case of `CCCCCCCCCCCCCCCCCCNc1nc(=O)n(C2CC(OP(=O)(O)OCC3OC(n4cc(F)c(=O)[nH]c4=O)CC3O)C(CO)O2)cc1F` (centres undefined), the TGI in test [11] is greater than 100 µM; in [1] it was greater than 100 µM; in [2], 27.8 µM; in test [3], greater than 100 µM; in test [4] it was greater than 100 µM; in [5] it was greater than 100 µM. Besides, the TGI in test [6] is 49.7 µM; in test [7], greater than 100 µM; in [8] it was greater than 100 µM; in [9] it was greater than 100 µM; in test [10] it was 51.1 µM.

Turning to `N#Cc1c(N2CCCC2)nsc1Nc1ccccc1`, the TGI in test [11], in [2], in test [4], in test [5], in test [6] and in test [7] was greater than 100 µM in each case. Moreover, the TGI in test [8] and in test [9] was greater than 100 µM in each case.

The values above are taken from PubChem BioAssay (NCI).
